From patent US20110230476A1, “PI3 KINASE INHIBITORS AND USES THEREOF” (AVILA THERAPEUTICS, INC., priority 2009, published 2011)

Each compound was assayed against T1, PI3Kα (p110α/p85α) (Homo sapiens, UniProt P42336) (assay: HTRF assay, potency against active PI3Kα). Conditions: HTRF; [ATP]=50 μM, [di-C8-PIP2]=10 μM; 30 min pre-incubation; read-out: PI3Kα Inhibition.
T1 construct: purchased BPS Bioscience (San Diego, Calif.) or Millipore (Billerica, Mass.)
Format: biochemical
Description: Homogeneous Time Resolved Fluorescence (HTRF) Assay Protocol for Potency Assessment Against the Active Forms of PI3Kα, PI3Kβ, and PI3Kγ
The mechanics of the assay platform are best described by the vendor (Millipore, Billerica, Mass.) on their website at the following URL: www.millipore.com/coa/tech1/74jt4z.
Briefly, Stop solution (Stop A, #33-007 and Stop B, #33-009; 3:1 ratio) and Detection Mix (from DMC, #33-015 with DMA, #33-011 and DMB, #33-013; 18:1:1 ratio) were prepared as recommended by the manufacturer about 2 hrs prior to use. […] Lipid kinase reactions were started with the addition of 5 μL of ATP solution, mixed for 15 sec on a rotary plate shaker and incubated for 30-60 minutes at 25° C. Next, reactions were stopped with a 5 μL addition of Stop solution immediately followed by a 5 μL volume of Detection Mix. […] At the conclusion of each assay, the HTRF ratio from fluorescence emission values for each well was calculated and % Inhibition determined from averaged controls wells (+/−PI3K enzyme). % Inhibition values for each compound were then plotted against inhibitor concentration to estimate IC50 from log [Inhibitor] vs Response, Variable Slope model in GraphPad Prism from GraphPad Software (San Diego, Calif.).

T1 sequence (P42336 whole entry): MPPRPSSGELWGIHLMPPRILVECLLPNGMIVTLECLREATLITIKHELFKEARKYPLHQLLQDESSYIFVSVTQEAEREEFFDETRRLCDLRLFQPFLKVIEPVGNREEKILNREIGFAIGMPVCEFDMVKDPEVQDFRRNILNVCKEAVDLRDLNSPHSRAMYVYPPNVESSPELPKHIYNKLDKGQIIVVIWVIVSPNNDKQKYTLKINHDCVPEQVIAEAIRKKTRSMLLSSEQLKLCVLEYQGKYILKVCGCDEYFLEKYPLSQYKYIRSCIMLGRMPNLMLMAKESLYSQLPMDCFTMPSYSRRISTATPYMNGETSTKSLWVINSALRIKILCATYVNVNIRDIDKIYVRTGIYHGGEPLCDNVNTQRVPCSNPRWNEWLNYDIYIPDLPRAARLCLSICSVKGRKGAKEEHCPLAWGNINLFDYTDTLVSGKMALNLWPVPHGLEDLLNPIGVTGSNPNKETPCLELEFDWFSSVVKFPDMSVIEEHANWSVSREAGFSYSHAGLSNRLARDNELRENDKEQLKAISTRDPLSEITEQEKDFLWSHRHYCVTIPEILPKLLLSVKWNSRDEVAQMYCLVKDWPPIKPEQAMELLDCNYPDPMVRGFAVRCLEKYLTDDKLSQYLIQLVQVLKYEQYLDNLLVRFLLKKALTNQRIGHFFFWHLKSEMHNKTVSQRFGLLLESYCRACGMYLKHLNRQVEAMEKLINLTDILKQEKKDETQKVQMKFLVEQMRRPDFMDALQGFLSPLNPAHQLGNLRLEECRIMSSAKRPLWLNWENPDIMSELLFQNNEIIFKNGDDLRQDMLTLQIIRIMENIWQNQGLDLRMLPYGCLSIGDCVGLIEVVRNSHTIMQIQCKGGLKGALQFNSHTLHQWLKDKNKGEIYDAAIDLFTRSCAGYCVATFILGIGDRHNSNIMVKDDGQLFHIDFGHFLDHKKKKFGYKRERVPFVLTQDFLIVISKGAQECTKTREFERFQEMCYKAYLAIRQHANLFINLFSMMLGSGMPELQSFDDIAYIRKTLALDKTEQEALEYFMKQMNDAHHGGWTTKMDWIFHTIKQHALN
T1 sequence (P27986 whole entry partner): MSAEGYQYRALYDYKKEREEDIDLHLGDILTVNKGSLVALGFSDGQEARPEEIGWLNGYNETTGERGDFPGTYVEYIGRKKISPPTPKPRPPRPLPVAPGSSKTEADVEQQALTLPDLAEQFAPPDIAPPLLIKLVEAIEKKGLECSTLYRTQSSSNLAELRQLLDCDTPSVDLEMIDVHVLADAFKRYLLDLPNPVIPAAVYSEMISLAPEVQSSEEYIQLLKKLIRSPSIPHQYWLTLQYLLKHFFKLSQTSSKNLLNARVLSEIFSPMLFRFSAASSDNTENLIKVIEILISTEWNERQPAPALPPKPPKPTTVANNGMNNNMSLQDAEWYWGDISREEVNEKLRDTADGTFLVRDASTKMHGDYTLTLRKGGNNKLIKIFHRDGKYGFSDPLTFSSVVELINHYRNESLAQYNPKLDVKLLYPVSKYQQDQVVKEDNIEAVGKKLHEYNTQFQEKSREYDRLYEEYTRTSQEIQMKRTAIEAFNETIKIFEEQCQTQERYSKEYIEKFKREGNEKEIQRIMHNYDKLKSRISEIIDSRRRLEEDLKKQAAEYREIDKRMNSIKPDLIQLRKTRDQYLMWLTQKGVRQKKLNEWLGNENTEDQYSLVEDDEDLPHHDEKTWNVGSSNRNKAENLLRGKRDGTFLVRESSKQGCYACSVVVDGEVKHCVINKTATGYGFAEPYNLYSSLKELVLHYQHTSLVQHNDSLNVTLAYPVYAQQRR

Row | SMILES | IC50 [nM]
1 | CC(C)=CC(=O)C(F)(F)C(F)(F)C(=O)N1CCN(Cc2cc3nc(-c4cccc5[nH]ncc45)nc(N4CCOCC4)c3s2)CC1 [II-a-157, 1-(4-((2-(1H-indazol-4-yl)-4-morpholinothieno[3,2-d]pyrimidin-6-yl)methyl)piperazin-1-yl)-2,2,3,3-tetrafluoro-6-methylhept-5-ene-1,4-dione] | 100 to 1000
2 | CC(C)=CC(=O)CCC(=O)N1CC=C(c2cc3nc(-c4cnc(N)nc4)nc(N4CCOCC4)c3s2)CC1 [II-a-165, 1-(4-(2-(2-aminopyrimidin-5-yl)-4-morpholinothieno[3,2-d]pyrimidin-6-yl)-5,6-dihydropyridin-1(2H)-yl)-6-methylhept-5-ene-1,4-dione] | 10 to 100
3 | CC(C)=CC(=O)CCCC(=O)N1CC=C(c2cc3nc(-c4cnc(N)nc4)nc(N4CCOCC4)c3s2)CC1 [II-a-166, 1-(4-(2-(2-aminopyrimidin-5-yl)-4-morpholinothieno[3,2-d]pyrimidin-6-yl)-5,6-dihydropyridin-1(2H)-yl)-7-methyloct-6-ene-1,5-dione] | < 10
4 | C/C(=C\c1ccccn1)C(=O)CCC(=O)N1CCN(Cc2cc3nc(-c4cccc5[nH]ncc45)nc(N4CCOCC4)c3s2)CC1 [II-a-167, (E)-1-(4-((2-(1H-indazol-4-yl)-4-morpholinothieno[3,2-d]pyrimidin-6-yl)methyl)piperazin-1-yl)-5-methyl-6-(pyridin-2-yl)hex-5-ene-1,4-dione] | 100 to 1000
5 | C/C(=C\c1ccccc1)C(=O)CCC(=O)N1CCN(Cc2cc3nc(-c4cccc5[nH]ncc45)nc(N4CCOCC4)c3s2)CC1 [II-a-168, (E)-1-(4-((2-(1H-indazol-4-yl)-4-morpholinothieno[3,2-d]pyrimidin-6-yl)methyl)piperazin-1-yl)-5-methyl-6-phenylhex-5-ene-1,4-dione] | 100 to 1000
6 | C/C(=C\c1ncc[nH]1)C(=O)CCC(=O)N1CCN(Cc2cc3nc(-c4cccc5[nH]ncc45)nc(N4CCOCC4)c3s2)CC1 [II-a-170, (E)-1-(4-((2-(1H-indazol-4-yl)-4-morpholinothieno[3,2-d]pyrimidin-6-yl)methyl)piperazin-1-yl)-6-(1H-imidazol-2-yl)-5-methylhex-5-ene-1,4-dione] | 100 to 1000
7 | C=CC(=O)Nc1cccc(C(=O)N2CC=C(c3cc4nc(-c5cnc(N)nc5)nc(N5CCOCC5)c4s3)CC2)c1 [II-a-171, N-(3-(4-(2-(2-aminopyrimidin-5-yl)-4-morpholinothieno[3,2-d]pyrimidin-6-yl)-1,2,3,6-tetrahydropyridine-1-carbonyl)phenyl)acrylamide] | < 10
8 | O=C(/C=C/c1cnc[nH]1)NCC12CCC(c3cc4nc(-c5cccc6[nH]ncc56)nc(N5CCOCC5)c4s3)(CC1)OC2 [II-a-177, (E)-N-((1-(2-(1H-indazol-4-yl)-4-morpholinothieno[3,2-d]pyrimidin-6-yl)-2-oxabicyclo[2.2.2]octan-4-yl)methyl)-3-(1H-imidazol-5-yl)acrylamide] | 100 to 1000
9 | CC(C)=CC(=O)CCCC(=O)N1CC=C(c2cc3nc(-c4cnc(N)nc4)cc(C4=CCOCC4)c3s2)CC1 [II-g-4, 1-(4-(5-(2-aminopyrimidin-5-yl)-7-(3,6-dihydro-2H-pyran-4-yl)thieno[3,2-b]pyridin-2-yl)-5,6-dihydropyridin-1(2H)-yl)-7-methyloct-6-ene-1,5-dione] | > 1000
10 | C=CC(=O)Nc1ccc(C(=O)N2CC=C(c3cc4nc(-c5cnc(N)nc5)cc(C5=CCOCC5)c4s3)CC2)cc1 [II-g-5, N-(4-(4-(5-(2-aminopyrimidin-5-yl)-7-(3,6-dihydro-2H-pyran-4-yl)thieno[3,2-b]pyridin-2-yl)-1,2,3,6-tetrahydropyridine-1-carbonyl)phenyl)acrylamide] | > 1000
11 | CC(C)=CC(=O)CCC(=O)N1CCN(Cc2cc3nc(-c4cnc(N)nc4)cc(N4CCOCC4)c3s2)CC1 [II-g-7, 1-(4-((5-(2-aminopyrimidin-5-yl)-7-morpholinothieno[3,2-b]pyridin-2-yl)methyl)piperazin-1-yl)-6-methylhept-5-ene-1,4-dione] | 100 to 1000
12 | C=CC(=O)Nc1ccc(OCc2cc3nc(-c4cnc(N)nc4)cc(N4CCOCC4)c3s2)cc1 [II-g-8, N-(4-((5-(2-aminopyrimidin-5-yl)-7-morpholinothieno[3,2-b]pyridin-2-yl)methoxy)phenyl)acrylamide] | 100 to 1000
13 | CCC(=O)NCc1cccc(-c2cc3nc(-c4cccc(O)c4)nc(N4CCOCC4)c3s2)c1 [II^R-a-64, N-(3-(2-(3-hydroxyphenyl)-4-morpholinothieno[3,2-d]pyrimidin-6-yl)benzyl)propionamide] | 100 to 1000
14 | CCC(=O)NC1CCN(c2ccc(-c3cc4nc(-c5cccc(O)c5)nc(N5CCOCC5)c4s3)cc2)CC1 [II^R-a-81, N-(1-(4-(2-(3-hydroxyphenyl)-4-morpholinothieno[3,2-d]pyrimidin-6-yl)phenyl)piperidin-4-yl)propionamide] | 100 to 1000
15 | C=CC(=O)NCCOCCOc1ccc2c(c1OC)N=C(NC(=O)c1cccnc1)N1CCN=C21 [IX-1, N-(8-(2-(2-acrylamidoethoxy)ethoxy)-7-methoxy-2,3-dihydroimidazo[1,2-c]quinazolin-5-yl)nicotinamide] | 10 to 100
16 | C/C=C/C(=O)CCC(=O)NCCOc1ccc2c(c1OC)N=C(NC(=O)c1cccnc1)N1CCN=C21 [IX-2, (E)-N-(7-methoxy-8-(2-(4-oxohept-5-enamido)ethoxy)-2,3-dihydroimidazo[1,2-c]quinazolin-5-yl)nicotinamide] | 10 to 100
17 | COc1c(OCCNC(=O)CCC(=O)/C=C/c2ccccc2)ccc2c1N=C(NC(=O)c1cccnc1)N1CCN=C21 [IX-3, (E)-N-(7-methoxy-8-(2-(4-oxo-6-phenylhex-5-enamido)ethoxy)-2,3-dihydroimidazo[1,2-c]quinazolin-5-yl)nicotinamide] | 10 to 100
18 | COc1c(OCCNC(=O)CCCC(=O)/C=C/c2ccccc2)ccc2c1N=C(NC(=O)c1cccnc1)N1CCN=C21 [IX-4, (E)-N-(7-methoxy-8-(2-(5-oxo-7-phenylhept-6-enamido)ethoxy)-2,3-dihydroimidazo[1,2-c]quinazolin-5-yl)nicotinamide] | 100 to 1000
19 | COc1c(OCCNC(=O)c2ccc(NC(=O)/C=C/c3ncc[nH]3)cc2)ccc2c1N=C(NC(=O)c1cccnc1)N1CCN=C21 [IX-6, (E)-N-(8-(2-(4-(3-(1H-imidazol-2-yl)acrylamido)benzamido)ethoxy)-7-methoxy-2,3-dihydroimidazo[1,2-c]quinazolin-5-yl)nicotinamide] | 10 to 100
20 | C=CC(=O)N1CCN(c2ccc(-c3ccnc4ccc(/C=C5\SC(=O)NC5=O)cc34)cn2)CC1 [V-4, (Z)-5-((4-(6-(4-acryloylpiperazin-1-yl)pyridin-3-yl)quinolin-6-yl)methylene)thiazolidine-2,4-dione] | 10 to 100
21 | C=CC(=O)N1CCN(c2ccc(-c3ccnc4ccc(/C=C5\SC(=O)NC5=O)cc34)cc2)CC1 [V-11, (Z)-5-((4-(4-(4-acryloylpiperazin-1-yl)phenyl)quinolin-6-yl)methylene)thiazolidine-2,4-dione] | 10 to 100
22 | C/C=C/C(=O)CCC(=O)N1CCN(c2ccc(-c3ccnc4ccc(/C=C5\SC(=O)NC5=O)cc34)cn2)CC1 [V-13, (Z)-5-((4-(6-(4-((E)-4-oxohept-5-enoyl)piperazin-1-yl)pyridin-3-yl)quinolin-6-yl)methylene)thiazolidine-2,4-dione] | < 10
23 | C/C=C/C(=O)CCCC(=O)N1CCN(c2ccc(-c3ccnc4ccc(/C=C5\SC(=O)NC5=O)cc34)cn2)CC1 [V-14, (Z)-5-((4-(6-(4-((E)-5-oxooct-6-enoyl)piperazin-1-yl)pyridin-3-yl)quinolin-6-yl)methylene)thiazolidine-2,4-dione] | < 10
24 | C/C=C/C(=O)CCC(=O)N1CCN(c2ccc(-c3ccnc4ccc(/C=C5\SC(=O)NC5=O)cc34)cc2)CC1 [V-15, (Z)-5-((4-(4-(4-((E)-4-oxohept-5-enoyl)piperazin-1-yl)phenyl)quinolin-6-yl)methylene)thiazolidine-2,4-dione] | 10 to 100
25 | C/C=C/C(=O)CCCC(=O)N1CCN(c2ccc(-c3ccnc4ccc(/C=C5\SC(=O)NC5=O)cc34)cc2)CC1 [V-16, (Z)-5-((4-(4-(4-((E)-5-oxooct-6-enoyl)piperazin-1-yl)phenyl)quinolin-6-yl)methylene)thiazolidine-2,4-dione] | < 10
26 | C/C=C/C(=O)CCCC(=O)N1CCc2ccc(-c3ccnc4ccc(/C=C5\SC(=O)NC5=O)cc34)cc2C1 [V-17, (Z)-5-((4-(2-((E)-5-oxooct-6-enoyl)-1,2,3,4-tetrahydroisoquinolin-7-yl)quinolin-6-yl)methylene)thiazolidine-2,4-dione] | 10 to 100
27 | CC(C)=CC(=O)CCC(=O)N1CCN(c2ccc(-c3ccnc4ccc(/C=C5\SC(=O)NC5=O)cc34)cn2)CC1 [V-18, (Z)-5-((4-(6-(4-(6-methyl-4-oxohept-5-enoyl)piperazin-1-yl)pyridin-3-yl)quinolin-6-yl)methylene)thiazolidine-2,4-dione] | < 10
28 | C=CC(=O)N1CCc2ccc(-c3ccnc4ccc(/C=C5\SC(=O)NC5=O)cc34)cc2C1 [V-19, (Z)-5-((4-(2-acryloyl-1,2,3,4-tetrahydroisoquinolin-7-yl)quinolin-6-yl)methylene)thiazolidine-2,4-dione] | 10 to 100
